Source: the supplement of paper PMC10307832

Compound: CC(=O)c1c(C)c2cnc(Nc3ccc(N4CCNCC4)cn3)nc2n(C2CCCC2)c1=O [Palbociclib] + CCNC(=O)c1noc(-c2cc(C(C)C)c(O)cc2O)c1-c1ccc(CN2CCOCC2)cc1 [Luminespib] (partner 0.01 µM)
Test: relative viability (nuclei count vs DMSO), 5 days (fraction); higher = more cells survive
Outline: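 Lung cancer cell lines were seeded in 1536-well plates and dosed by pin tool the next day, with either a single drug or a fixed anchor-drug dose combined with five library-drug doses (not always all listed) spaced in √10 steps. Five days later, one step fixed the cells and stained their nuclei (final 0.05% Triton X-100, 1% formaldehyde, 1 ug/ml Hoechst), and nuclei were counted on 4× images. Relative viability is the nuclei count in treated wells divided by the count in vehicle wells, and each value is the median of duplicate plates.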

Cell Line | relative viability (first compound 0.01 µM) | relative viability (first compound 0.03162 µM) | relative viability (first compound 0.1 µM) | relative viability (first compound 0.3162 µM) | relative viability (first compound 1 µM)
201T | 1.02 | 1.01 | 0.909 | 0.878 | 0.749
A-427 | 0.991 | 0.809 | 0.691 | 0.74 | 0.501
ABC-1 | 0.625 | 0.521 | 0.423 | 0.459 | 0.949
BEN | 0.619 | 0.225 | 0.269 | 0.205 | 0.194
CAL-12T | 0.367 | 0.318 | 0.463 | 0.277 | 0.206
COR-L23 | 0.647 | 0.515 | 0.511 | 0.429 | 0.434
COR-L 105 | 0.689 | 0.814 | 0.596 | 0.475 | 0.536
ChaGo-K-1 | 0.532 | 0.575 | 0.893 | 0.689 | 0.62
EKVX | 0.856 | 0.745 | 0.919 | 0.841 | 0.605
EMC-BAC-2 | 1.19 | 1.15 | 0.952 | 0.979 | 0.848
EPLC-272H | 0.225 | – | 0.346 | 0.518 | 0.379
H3255 | 0.925 | 0.91 | 0.65 | 0.587 | 0.464
HARA | 0.65 | – | 0.447 | 0.514 | 0.28
HCC-15 | 0.267 | – | 0.378 | 0.502 | 0.418
HCC-44 | 0.933 | 1.01 | 1.02 | 1.35 | 1.11
HCC-827 | 0.398 | 0.539 | 0.582 | 0.609 | 0.532
HOP-62 | 0.905 | 0.844 | 0.91 | 0.716 | 0.675
LC-2-ad | 0.944 | – | 0.856 | 0.8 | 0.535
LCLC-97TM1 | 0.666 | 0.702 | 0.684 | 0.486 | 0.281
LCLC-103H | 0.978 | 0.808 | 0.848 | 0.718 | 0.584
LK-2 | 0.208 | – | 0.166 | 0.191 | 0.158
LOU-NH91 | 0.341 | 0.322 | 0.271 | 0.348 | 0.324
LU99A | 0.254 | 0.201 | 0.232 | 0.251 | 0.2
LXF-289 | 0.627 | 0.71 | 0.604 | 0.709 | 0.554

Cell Line | relative viability (first compound 0.01 µM) | relative viability (first compound 0.03162 µM) | relative viability (first compound 0.1 µM) | relative viability (first compound 0.3162 µM) | relative viability (first compound 1 µM)
NCI-H23 | 0.216 | 0.214 | 0.219 | 0.196 | 0.236
NCI-H322M | 0.699 | 0.729 | 0.647 | 0.657 | 0.475
NCI-H358 | 0.325 | – | 0.176 | 0.308 | 0.134
NCI-H441 | 0.317 | 0.371 | 0.38 | 0.26 | 0.229
NCI-H460 | 0.0282 | 0.0413 | 0.0309 | 0.0231 | 0.026
NCI-H520 | 0.203 | 0.214 | 0.225 | 0.216 | 0.222
NCI-H596 | 0.91 | – | 0.968 | 0.958 | 1.04
NCI-H647 | 0.0934 | 0.13 | 0.137 | 0.209 | 0.253
NCI-H650 | 0.921 | 0.613 | 0.629 | 0.793 | 0.609
NCI-H661 | 0.868 | 0.789 | 0.597 | 0.523 | 0.416
NCI-H727 | 0.309 | 0.293 | 0.285 | 0.352 | 0.405
NCI-H838 | 0.274 | 0.346 | 0.267 | 0.257 | 0.265
NCI-H1355 | 0.74 | 0.776 | 0.811 | 0.568 | 0.521
NCI-H1395 | 0.661 | 0.561 | 0.631 | 0.668 | 0.587
NCI-H1437 | 1.16 | 1.07 | 0.961 | 0.89 | 0.666
NCI-H1563 | 0.479 | 0.444 | 0.432 | 0.577 | 0.489
NCI-H1650 | 0.178 | 0.211 | 0.186 | 0.186 | 0.172
NCI-H1651 | 0.872 | 0.814 | 0.774 | 0.791 | 0.677
NCI-H1666 | 0.969 | 0.886 | 0.824 | 0.754 | 0.542
NCI-H1734 | 0.251 | 0.182 | 0.193 | 0.197 | 0.17
NCI-H1755 | 0.266 | 0.297 | 0.451 | 0.479 | 0.284
NCI-H1792 | 0.558 | 0.498 | 0.288 | 0.327 | 0.371
NCI-H1793 | 0.17 | – | 0.243 | 0.193 | 0.2
NCI-H1915 | 0.807 | 0.674 | 0.793 | 0.71 | 0.629

Cell Line | relative viability (first compound 0.01 µM) | relative viability (first compound 0.03162 µM) | relative viability (first compound 0.1 µM) | relative viability (first compound 0.3162 µM) | relative viability (first compound 1 µM)
NCI-H1944 | 0.683 | 0.742 | 0.626 | 0.666 | 0.516
NCI-H1975 | 0.161 | 0.189 | 0.102 | 0.198 | 0.193
NCI-H1993 | 0.8 | 0.781 | 0.762 | 0.671 | 0.888
NCI-H2009 | 1.04 | 0.897 | 0.817 | 0.701 | 0.519
NCI-H2023 | 0.723 | 0.532 | 0.515 | 0.551 | 0.343
NCI-H2085 | 0.426 | 0.332 | 0.376 | 0.412 | 0.327
NCI-H2087 | 0.175 | – | 0.137 | 0.235 | 0.203
NCI-H2126 | 0.869 | 0.79 | 0.564 | 0.535 | 0.369
NCI-H2170 | 0.536 | 0.536 | 0.558 | 0.707 | 0.536
NCI-H2228 | 0.173 | 0.182 | 0.149 | 0.126 | 0.098
NCI-H2342 | 0.719 | 0.757 | 0.575 | 0.718 | 0.549
NCI-H2347 | 0.41 | – | 0.366 | 0.429 | 0.453
NCI-H2405 | 0.818 | 0.893 | 0.613 | 0.843 | 0.534
NCI-H3122 | 0.081 | 0.0895 | 0.0794 | 0.0926 | 0.0834
PC-3 [JPC-3] | 0.708 | 0.743 | 0.649 | 0.661 | 0.53
PC-14 | 0.141 | – | 0.151 | 0.127 | 0.176
RERF-LC-KJ | 1.4 | 1.17 | 0.937 | 1.3 | 1.48
SK-LU-1 | 0.218 | 0.177 | 0.222 | 0.223 | 0.207
SK-MES-1 | 0.755 | 0.462 | 0.587 | 0.42 | 0.376
SW 900 | 0.198 | – | 0.163 | 0.182 | 0.171
SW 1573 | 0.385 | 0.207 | 0.257 | 0.208 | 0.265
UMC-11 | 1.04 | 0.819 | 0.69 | 0.452 | 0.285
